Test in all cases: DTP human tumour cell line panel, 48 h
For experiment [1], the system named is HCT-116 colon.
Experiment [2] concerns HOP-62 NSCLC.
Experiment [3] relates to IGROV1 ovarian.
The test system of experiment [4] is KM12 colon.
Experiment [5] relates to NCI-H522 lung.
Experiment [6] deals with OVCAR-5 ovarian.
For experiment [7], the system named is SF-539 CNS.
Experiment [8] has as its system SN12C renal.
The test system of experiment [9] is HS 578T breast.
The subject of experiment [10] is PC-3 prostate.

Where “and” joins values, the source holds several entries; their conditions need not be identical. Equal entries are not always repeated.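 Test compounds were applied to cells in 96-well plates for 48 hours at 5 doses. The concentration for 50% growth inhibition is given as GI50. At the TGI there is no net growth.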

Consider `CC(=O)Nc1ccc(C2=N/C(=C\c3ccc(Cl)cc3)C(=O)O2)cc1`, for which the TGI (commonly the concentration at which net growth stops) in [1] is greater than 100 µM; in experiment [2], greater than 100 µM; in experiment [3] it was greater than 100 µM; in experiment [4], greater than 100 µM; in experiment [5] it was 63.7 µM; in experiment [6] it was greater than 100 µM. Further, the TGI in experiment [7] was greater than 100 µM; in [8], 61.5 µM.
For `CC1=C(C(=O)Nc2ccc(C)cc2)C(c2cccc([N+](=O)[O-])c2)C(C(=O)Nc2ccc(C)cc2)=C(C)N1`, the TGI was greater than 100 µM in experiment [1]; 89.4 µM in experiment [2]; 66.8 µM in experiment [3]; 40.2 µM in experiment [4]; 93.8 µM in experiment [5]; greater than 100 µM in [6]. Also, the TGI was determined as 36.9 µM in experiment [7] and 67.4 µM in experiment [8].
As for `CC1(C)C(CC(=O)O)CCCC1CC(=O)O` (configuration not stated), the TGI in experiment [1], in experiment [2], in experiment [9], in experiment [3], in experiment [4] and in [6] was greater than 100 µM in each case. In addition, the TGI in [10] and in experiment [8] was greater than 100 µM in each case.
Regarding `N#Cc1cccc(C2C(=O)c3ccc(C(=O)c4ccc5c(c4)C(=O)N(c4ccc(Oc6ccc(N7C(=O)c8ccc(C(=O)c9ccc%10c(c9)C(=O)N(c9cccc(C#N)c9)C%10=O)cc8C7=O)cc6)cc4)C5=O)cc3C2=O)c1` (configuration not stated), the TGI in [1], in experiment [2], in [3], in experiment [4], in experiment [5] and in [6] was greater than 100 µM in each case. The TGI in [7] and in experiment [8] was greater than 100 µM in each case.
As to `Cc1ccccc1-n1c(CCl)nc2ccc(Br)cc2c1=O`, the TGI in experiment [1] is 21.3 µM; in experiment [2] it was 56 µM; in experiment [3] it was 33.1 µM; in experiment [4] it was 26.9 µM; in [5], 5.83 µM; in experiment [6], 56.3 µM. Besides, the figures for the TGI in [7] and in experiment [8] were 21.8 µM and 16.6 µM, respectively.
With `Clc1ccccc1C1SCc2nc3ccccc3n21` (configuration not stated), the TGI was 56.3 µM in [1]; 64.6 µM in experiment [2]; greater than 100 µM in experiment [3]; greater than 100 µM in experiment [4]; 49.5 µM in experiment [5]; 79.4 µM in experiment [6]. The TGI in [7] is greater than 100 µM; in experiment [8], 51.8 µM.
With `Fc1ccc(N=C2C=CC(=Nc3ccc(F)cc3)c3ccccc32)cc1`, the concentration for total growth inhibition (TGI) in [1], in [2], in experiment [3], in experiment [5], in [6] and in experiment [7] was greater than 100 µM in each case. In experiment [8], this compound had a TGI greater than 100 µM.
`COC(=O)C1=CC(=O)[C@@H]2CCCC[C@H]12`: the TGI in experiment [1], in [2], in experiment [4], in experiment [5], in experiment [7] and in [8] was greater than 100 µM in each case.
Turning to `O=C(Cc1nc2ccccc2o1)C(=O)Nc1ccc(Cl)cc1Cl`, the total growth inhibition concentration (TGI) in experiment [1], in experiment [2], in [3], in experiment [6], in experiment [7] and in [8] was greater than 100 µM in each case.
For `Cc1cc(Cl)cc2c1NC(=O)C2(O)C(C(=O)c1ccccc1)c1ccccc1` (configuration not stated), the TGI in experiment [1] was 79.3 µM; in experiment [2], greater than 100 µM; in [3], 83 µM; in experiment [4] it was greater than 100 µM; in [5], greater than 100 µM; in experiment [6], greater than 100 µM. In addition, the total growth inhibition concentration (TGI) in [7] was 39.7 µM; in experiment [8], > 100 µM and 38.6 µM. In addition, the GI50 (as a rule, the concentration giving 50% growth inhibition) in experiment [8] is > 100 µM and 14.9 µM.
For `CCc1ccccc1NC(=O)C(=O)C1C(=O)N(c2ccccc2)N=C1N` (configuration not stated), the TGI in [1], in [2], in [3], in [4], in experiment [6] and in [7] was greater than 100 µM throughout. In experiment [8], the TGI was greater than 100 µM.
Turning to `[CH3][Hg]/[N]=C(/N)NC#N`, the GI50 in [1] is 14.4 µM; in [2], 19.4 µM; in experiment [3] it was 18.9 µM; in [4], 16.5 µM; in experiment [5], 1.29 µM; in [6] it was 17.1 µM. The GI50 in [7] is 17.7 µM; in experiment [8], 14 µM. The TGI in [1] is 27.9 µM; in experiment [2] it was 36.6 µM; in [3], 36.6 µM; in experiment [4] it was 30 µM; in [5], 2.57 µM; in experiment [6], 31 µM. Also, the TGI worked out at 32.4 µM in experiment [7] and 28.5 µM in [8].
Regarding `Cc1ccc(NC(=O)CC2SC(=Nc3ccc(Cl)cc3)NC2=O)cc1C` (configuration not stated), the TGI in experiment [1] was 32.9 µM; in [2], greater than 100 µM; in experiment [3], greater than 60.8 µM; in [4], 40.3 µM; in experiment [5] it was 18.4 µM; in experiment [6], 33.1 µM. Besides, the TGI in [7] was 35.4 µM; in experiment [8], 31.9 µM.
In the case of `CN1C2(c3ccccc3)C(C(=O)c3ccccc3)=C(C(=O)c3ccccc3)C1(c1ccccc1)c1c(-c3ccccc3)sc(-c3ccccc3)c12`, the total growth inhibition concentration (TGI) in experiment [1], in experiment [2], in experiment [3], in experiment [4], in [5] and in experiment [6] was greater than 100 µM throughout. In addition, the TGI in [7] and in experiment [8] was greater than 100 µM each time.
As for `Cc1cc(C)c(/C=N/NS(=O)(=O)c2ccccc2)c(C)c1`, the TGI in [1], in [2], in experiment [3], in experiment [4], in experiment [6] and in [7] was greater than 100 µM in each case. The compound further displayed a TGI in [8] greater than 100 µM.

Values taken from PubChem BioAssay (NCI).
